Source: patent US7358056B1, “Methods for modulating signal transduction mediated by TGF-β and related proteins” (Signal Pharmaceuticals, priority 1999, dated 2008)
Where a SMILES comes first, the peptide text is derived from it. Where no end group is shown, it is not given here. The star is where a group is joined. Biotin = O=C1N[C@H]2[C@H](CS[C@H]2CCCCC(=O)*)N1; Ahx = NCCCCCC(=O)O

Assays:
[1] = tested on: E1 and E2s (ubc5c and ubc7); assay: Coupled ubiquitin assay, ubiquitination of active site cysteines of E1 and E2; format: biochemical; conditions: 20 mM DTT
Procedure: Recombinant E1 (ubc5c) and E2 (ubc7) components were obtained from BostonBiochem (Cambridge, Mass.). Radiolabeled ubiquitin was generated by PKA-mediated incorporation of [^32P]-phosphate from […] to the PKA site of the GST-Ub fusion protein (pGEX KG expression vector). The ubiquitin assay buffer (UbB) was as follows: 50 mM Tris pH 7.6, 1 mM ATP, 0.2 mM EDTA, 5 mM MgCl2, 1 unit inorganic pyrophosphatase, 0.005% TRITON® X-100 detergent and 1 μM staurosporine. In a 0.030 mL reaction, the following components were present: 50-200 ng E1, 0.1-1 μg E2 and 5 μg GST-Ub. […] Reactions were analyzed by SDS-PAGE. The ubiquitination of active site cysteine residues of E1 and E2s (ubc Sc and ubc 7) was observed (FIGS. 9A-9C).

Smad1 = assay: In vivo ubiquitination of Smad1 in transfected COS cells (immunoprecipitation, Western); format: cell-based; conditions: COS cells treated with LLF, with or without BMP
Procedure: To assess the in vivo ubiquitination of Smad1, a Smad1 expression vector was transfected into COS cells. The transfected cells were treated with BMP and the proteasome inhibitor LLF, as described above. The cells were then lysed and equal amounts of protein were used for immunoprecipitation using anti-HA antibody, to precipitate tagged-Smad1 protein. The immunoprecipitated Smad1 was run on SDS-PAGE, followed by a Western blot using anti-HA antibody or anti-ubiquitin antibody (BAbCo).

HA-tagged Smad1 = assay: BMP-induced Smad1 degradation in transfected COS cells (Western, anti-HA); format: cell-based; conditions: 100 ng BMP 4 hours, 50-100 μM LLF
Procedure: HA-tagged Smad1 expression vector was transfected into COS cells. The transfected cells were then treated with 100 ng BMP for 4 hours in the absence or presence of 50-100 μM of the proteasome inhibitor Leu-Leu-Phe (LLF). The cells were lysed and equal amount of protein was loaded in each lane. Western analysis was performed using anti-HA antibody (BAbCo, Berkeley, Calif.).

WWP1 WW domains = assay: TRF binding assay of biotinylated PY motif peptides to GST-WW domain fusions; conditions: for Interaction with WWP1 WW domains (TRF, peptide titration): GST-WW domains coated at 30 μg/mL overnight
Procedure: Each domain was individually expressed as a GST fusion protein. A TRF binding assay was used to evaluate interactions of PY motif peptides with these domains or GST alone. WW domains were bound to a 96-well polystyrene assay plate (Costar) overnight at 4° C. in a 200 mM carbonate buffer (Pierce, Rockford, Ill.) at different concentrations (0, 1, 3, 10 μg/mL). Unbound WW domain was washed away with distilled, deionized water and the plates were blocked with 1% BSA/carbonate buffer for 2 hours at room temperature. The plates were then washed with Tris/TWEEN® buffer: 50 mM Tris pH 7.5, 100 mM NaCl, 1 mM EDTA, 1% BSA, 1 mM DTT, 0.1% TWEEN® 20 detergent, protease inhibitor cocktail (Boehringer-Mannheim).
PY motif peptides were synthesized with a C6-linker and biotin tag.
These biotinylated peptides were solvated in Tris/TWEEN® buffer and added to the assay plates (30 μM). The plates were incubated at 4° C. for varying amounts of capture time. The plates were then washed with PBS/0.1% TRITON® X-100 detergent and probed for 1 hour at room temperature with 1 μg/mL Europium-labeled streptavidin (DELFIA; Wallac Oy, Turku, Finland) in DELFIA Assay Buffer/0.1% Triton X100. The unbound Europium-labeled streptavidin was washed with PBS/0.1% TRITON® X-100 detergent. Europium was released for time-resolved fluorescence measurements with the DELFIA Enhancement Buffer. Measurements were made on either the DELFIA 1234 or Victor fluorometers.
Smad PY motif peptides from Smad 1, 2, 3, 5, 6 and 7 (Table 1) were then evaluated with the WW domains from WWP1 (FIGS. 6A-6D and 7A-7B). The GST-WW domain fusion proteins and GST alone were coated at 30 μg/mL overnight. After blocking the wells with BSA, the WW domain peptides were titrated with the Smad PY motif peptides.

Molecule | Interaction with WWP1 WW domains (TRF, peptide titration) (WWP1 WW domains) | also measured
O[C@@H](CS)[C@@H](O)CS [DTT] | – | Formation of thioester intermediates (ubiquitinated E1 and E2) [1]: prevented the formation of the thioester intermediates
CC(C)C[C@H](NC(=O)[C@@H](N)CC(C)C)C(=O)N[C@@H](Cc1ccccc1)C(=O)O [LLF, Leu-Leu-Phe] (H-Leu-Leu-Phe-OH) | – | Accumulation of high molecular weight ubiquitinated Smad1 (Smad1): accumulated more high molecular weight, ubiquitinated-Smad1 protein; Effect on BMP-induced Smad1 degradation (HA-tagged Smad1): blocks BMP-induced Smad1 degradation
{Biotin-Ahx}-HPGTPPPPYTVGPG-NH2 (SEQ ID NO:28) [WBP1, reference compound] | – | Binding to WWP1 WW domains (TRF) (WWP1 WW domains; peptide 30 μM, WW domains coated at 0, 1, 3, 10 μg/mL, GST alone as control): bound specifically
{Biotin-Ahx}-PADTPPPAYLPPED-NH2 (SEQ ID NO:22) [Smad 1] | no measurable interaction | –

More lines, main results first:

Interaction with WWP1 WW domains (TRF, peptide titration) (WWP1 WW domains) | Molecule | also measured
no measurable interaction | AGLTPPPGYLSEDG (SEQ ID NO:25) (also: biotinylated) [Smad 3, biotinylated Smad3 PY motif peptide] | –
measurable interactions | GPESPPPPYSRLSP (SEQ ID NO:21) (also: biotinylated) [Smad 6, biotinylated Smad6 PY motif peptide] | –
no measurable interaction | IPETPPPGYISEDG (SEQ ID NO:24) (also: biotinylated) [Smad 2, biotinylated Smad2 PY motif peptide] | –
measurable interactions | PADTPPPAYMPPDD (SEQ ID NO:23) (also: biotinylated) [Smad 5, biotinylated Smad5 PY motif peptide] | –
